# Laboratory results from US20150307520A1, “NOVEL HETEROARYL AND HETEROCYCLE COMPOUNDS, COMPOSITIONS AND METHODS THEREOF” (HUTCHISON MEDIPHARMA LIMITED, priority 2012, published 2015).
# Legend:
# [1] = molecular target: p110δ/p85α (Homo sapiens, UniProt O00329); experiment: Transcreener KINASE Assay, kinase inhibition of p110δ/p85α; type: biochemical; settings: for PI3Kδ IH % @ 1 uM: 1 uM test compound; for IC50: read-out: PI3Kδ IC50
# Method in brief: (§1)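 ADP production was read by fluorescence polarization immunoassay (60 min detection step) after an 80 min room-temperature reaction of p110/p85α enzyme, compound in 2% DMSO, and PIP2/ATP solution (30 uM/10 uM as added) in HEPES buffer with MgCl2 and DTT. IC50s came from inhibition versus the DMSO control.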
# [2] = molecular target: PI3Kγ (Mus musculus, UniProt Q9JHG7); experiment: Acumen Assay - Raw264.7 p-AKT Assay (C5a stimulated); type: cell-based; settings: Raw264.7 macrophage cells, compound 30 min, stimulated with 10 nM C5a for 5 min, p-AKT (Ser473) readout; read-out: PI3Kγ cell-C5a Raw264.7 IC50
# Chain of PI3Kγ (Q9JHG7 whole entry): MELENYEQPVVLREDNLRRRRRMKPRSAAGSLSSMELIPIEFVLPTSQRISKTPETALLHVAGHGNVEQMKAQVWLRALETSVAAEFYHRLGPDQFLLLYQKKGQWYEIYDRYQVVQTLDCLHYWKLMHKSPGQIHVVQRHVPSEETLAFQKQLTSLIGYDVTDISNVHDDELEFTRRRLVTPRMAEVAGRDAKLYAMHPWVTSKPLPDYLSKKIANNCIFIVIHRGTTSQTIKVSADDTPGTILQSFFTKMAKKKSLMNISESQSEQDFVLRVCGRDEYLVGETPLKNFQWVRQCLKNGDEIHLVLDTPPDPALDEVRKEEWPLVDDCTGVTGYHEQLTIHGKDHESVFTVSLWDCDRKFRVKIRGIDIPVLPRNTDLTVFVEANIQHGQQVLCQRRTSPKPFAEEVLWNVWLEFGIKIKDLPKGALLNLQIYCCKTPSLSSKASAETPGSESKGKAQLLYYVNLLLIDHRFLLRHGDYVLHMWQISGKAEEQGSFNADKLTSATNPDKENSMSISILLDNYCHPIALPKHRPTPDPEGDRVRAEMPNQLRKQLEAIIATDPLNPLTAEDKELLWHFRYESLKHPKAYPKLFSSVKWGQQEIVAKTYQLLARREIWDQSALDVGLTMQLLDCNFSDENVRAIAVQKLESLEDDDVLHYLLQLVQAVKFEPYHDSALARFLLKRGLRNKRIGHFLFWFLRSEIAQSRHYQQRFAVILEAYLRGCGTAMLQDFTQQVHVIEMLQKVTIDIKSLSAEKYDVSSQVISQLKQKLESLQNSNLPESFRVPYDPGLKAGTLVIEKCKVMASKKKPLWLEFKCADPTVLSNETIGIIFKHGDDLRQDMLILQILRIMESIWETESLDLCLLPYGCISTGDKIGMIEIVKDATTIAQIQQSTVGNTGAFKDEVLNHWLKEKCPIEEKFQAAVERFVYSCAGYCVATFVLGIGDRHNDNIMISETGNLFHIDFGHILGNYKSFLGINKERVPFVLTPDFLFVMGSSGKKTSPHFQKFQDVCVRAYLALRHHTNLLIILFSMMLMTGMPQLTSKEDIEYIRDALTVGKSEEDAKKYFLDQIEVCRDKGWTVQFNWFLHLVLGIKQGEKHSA
# Procedure: Acumen Assay—Raw264.7 p-AKT Assay
# Acumen® eX3 (A Multilaser Microplate Cytometer For Enhanced High Content Screening): TTP LabTech
# 3×10^4 Raw264.7 macrophage cells were seeded into 96-well plates with DMEM+10% heat-inactivated FBS at […], 90 ul/well, overnight. After starvation for 3 hr at 37° C. under 5% CO2, Raw264.7 cells were treated with 10 ul/well various concentrations of compound or 0.5% DMSO for 30 min, and then stimulated with 10 ul/well 10 nM C5a for 5 min.
# 1.) Cells were fixed 110 μL of 4% pre-warmed Paraformaldehyde (2% final), incubate for 45 min at room temperature. 2.) Remove paraformaldehyde solution. Add 100 μL of ice-cold 0.1% Triton X-100 in PBS and leave at 4° C. for 30 min. 3.) Wash once in 100 μL PBS. 4.) Incubate with 100 μL blocking buffer (1% BSA, in PBS) for 2 hours at room temperature. 5.) Wash once for 5 min with 100 ul PBS. 6.) Incubate with 40 μL 1:200 dilution of phospho AKT (Ser473) rabbit antibody in antibody dilution buffer (0.1% BSA, in PBS) overnight at 4° C. 7.) Wash for 3 times for 10 min with 100 ul PBS. 8.) Incubate for 90 min at room temperature with 50 μL of goat anti-rabbit Alex488 antibody at a 1:1,000 dilution in antibody dilution buffer (0.1% BSA, in PBS). Cover plate in foil to keep out of light. 9.) Wash for 3 times for 10 min with 100 μL PBS. 10.) Add 50 μL of 1.5 μM Propidium Iodide solution to each well to determine cell number at a 1:1,000 dilution in PBS (stock: 1.5 mM). 11.) Incubate at room temperature for 30 min. 12.) Seal the plate with a black cover-seal (supplied with plate). 13.) Load the plate into the Acumen Explorer and scan with the appropriate instrument settings.
# [3] = molecular target: p110β/p85α (Homo sapiens, UniProt P42338); experiment: Transcreener KINASE Assay, kinase inhibition of p110β/p85α; type: biochemical; settings: for PI3Kβ IH % @ 1 uM: 1 uM test compound; for IC50: read-out: PI3Kβ IC50
# Method in brief: as §1
# [4] = molecular target: p110γ (Homo sapiens, UniProt P48736); experiment: Transcreener KINASE Assay, kinase inhibition of p110γ; type: biochemical; settings: for PI3Kγ IH % @ 1 uM: 1 uM test compound; for IC50: read-out: PI3Kγ IC50
# Chain of p110γ (P48736 whole entry): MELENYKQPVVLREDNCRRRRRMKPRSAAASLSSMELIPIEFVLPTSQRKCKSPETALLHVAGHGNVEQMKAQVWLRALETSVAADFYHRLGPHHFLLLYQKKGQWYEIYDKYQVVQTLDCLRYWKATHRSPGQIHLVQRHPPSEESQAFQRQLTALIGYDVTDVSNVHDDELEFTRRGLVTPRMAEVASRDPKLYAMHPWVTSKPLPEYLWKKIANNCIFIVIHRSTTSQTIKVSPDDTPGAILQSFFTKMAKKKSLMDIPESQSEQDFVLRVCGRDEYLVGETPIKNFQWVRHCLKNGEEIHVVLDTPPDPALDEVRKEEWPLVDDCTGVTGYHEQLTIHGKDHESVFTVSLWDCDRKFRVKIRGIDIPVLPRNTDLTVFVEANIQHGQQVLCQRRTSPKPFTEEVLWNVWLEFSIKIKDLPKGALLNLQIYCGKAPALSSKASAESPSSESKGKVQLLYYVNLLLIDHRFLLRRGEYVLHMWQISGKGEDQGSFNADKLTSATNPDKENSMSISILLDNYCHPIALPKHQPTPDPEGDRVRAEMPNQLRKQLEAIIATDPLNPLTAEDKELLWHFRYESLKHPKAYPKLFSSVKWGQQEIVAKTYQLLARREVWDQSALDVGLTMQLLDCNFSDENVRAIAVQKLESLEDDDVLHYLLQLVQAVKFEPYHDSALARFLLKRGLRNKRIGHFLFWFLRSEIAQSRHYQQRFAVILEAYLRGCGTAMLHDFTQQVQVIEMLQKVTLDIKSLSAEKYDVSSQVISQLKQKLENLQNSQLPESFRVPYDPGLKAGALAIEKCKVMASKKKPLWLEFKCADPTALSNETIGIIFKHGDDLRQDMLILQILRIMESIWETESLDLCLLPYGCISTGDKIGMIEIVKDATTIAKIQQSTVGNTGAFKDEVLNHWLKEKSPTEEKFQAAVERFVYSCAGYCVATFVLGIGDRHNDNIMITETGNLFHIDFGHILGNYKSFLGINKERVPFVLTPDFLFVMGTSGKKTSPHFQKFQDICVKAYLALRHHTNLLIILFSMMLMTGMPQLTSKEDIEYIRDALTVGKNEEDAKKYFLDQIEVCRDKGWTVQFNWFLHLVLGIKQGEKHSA
# Method in brief: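 Steps: enzyme reaction with compound, 80 min at room temperature; add ADP detection reagent, incubate 60 min at room temperature; read fluorescence polarization. Inhibition and IC50 values are derived from the ADP signal.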
# [5] = molecular target: p110α/p85α (Homo sapiens, UniProt P42336); experiment: Transcreener KINASE Assay, kinase inhibition of p110α/p85α; type: biochemical; settings: read-out: PI3Kα IC50
# Chain of p110α/p85α (P42336 whole entry): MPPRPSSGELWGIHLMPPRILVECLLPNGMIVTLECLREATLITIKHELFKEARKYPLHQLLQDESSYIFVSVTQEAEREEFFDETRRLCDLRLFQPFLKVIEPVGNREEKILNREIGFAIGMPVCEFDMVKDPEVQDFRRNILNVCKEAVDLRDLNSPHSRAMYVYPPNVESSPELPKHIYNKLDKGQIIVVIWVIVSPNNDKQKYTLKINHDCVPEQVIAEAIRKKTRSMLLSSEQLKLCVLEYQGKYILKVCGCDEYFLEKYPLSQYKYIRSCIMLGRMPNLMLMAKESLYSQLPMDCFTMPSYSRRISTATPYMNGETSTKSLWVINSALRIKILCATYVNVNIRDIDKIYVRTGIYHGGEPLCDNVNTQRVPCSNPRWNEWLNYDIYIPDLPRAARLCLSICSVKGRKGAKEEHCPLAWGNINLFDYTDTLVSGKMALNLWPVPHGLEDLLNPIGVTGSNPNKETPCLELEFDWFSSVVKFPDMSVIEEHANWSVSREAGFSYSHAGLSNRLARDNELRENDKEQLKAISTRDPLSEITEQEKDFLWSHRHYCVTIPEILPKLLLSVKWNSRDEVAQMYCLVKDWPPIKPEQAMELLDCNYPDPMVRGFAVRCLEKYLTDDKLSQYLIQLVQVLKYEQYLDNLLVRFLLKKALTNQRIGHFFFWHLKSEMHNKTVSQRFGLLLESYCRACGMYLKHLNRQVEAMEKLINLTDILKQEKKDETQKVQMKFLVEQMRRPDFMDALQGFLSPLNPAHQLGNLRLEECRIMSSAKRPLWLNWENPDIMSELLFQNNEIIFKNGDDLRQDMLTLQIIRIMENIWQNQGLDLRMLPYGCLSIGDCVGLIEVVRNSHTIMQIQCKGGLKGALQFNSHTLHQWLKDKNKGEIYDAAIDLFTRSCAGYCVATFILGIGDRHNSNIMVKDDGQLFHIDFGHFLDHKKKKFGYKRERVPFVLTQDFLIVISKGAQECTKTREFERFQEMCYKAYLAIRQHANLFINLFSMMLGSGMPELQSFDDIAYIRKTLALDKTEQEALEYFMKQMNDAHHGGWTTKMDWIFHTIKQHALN
# Chain of p110α/p85α (P27986 whole entry partner): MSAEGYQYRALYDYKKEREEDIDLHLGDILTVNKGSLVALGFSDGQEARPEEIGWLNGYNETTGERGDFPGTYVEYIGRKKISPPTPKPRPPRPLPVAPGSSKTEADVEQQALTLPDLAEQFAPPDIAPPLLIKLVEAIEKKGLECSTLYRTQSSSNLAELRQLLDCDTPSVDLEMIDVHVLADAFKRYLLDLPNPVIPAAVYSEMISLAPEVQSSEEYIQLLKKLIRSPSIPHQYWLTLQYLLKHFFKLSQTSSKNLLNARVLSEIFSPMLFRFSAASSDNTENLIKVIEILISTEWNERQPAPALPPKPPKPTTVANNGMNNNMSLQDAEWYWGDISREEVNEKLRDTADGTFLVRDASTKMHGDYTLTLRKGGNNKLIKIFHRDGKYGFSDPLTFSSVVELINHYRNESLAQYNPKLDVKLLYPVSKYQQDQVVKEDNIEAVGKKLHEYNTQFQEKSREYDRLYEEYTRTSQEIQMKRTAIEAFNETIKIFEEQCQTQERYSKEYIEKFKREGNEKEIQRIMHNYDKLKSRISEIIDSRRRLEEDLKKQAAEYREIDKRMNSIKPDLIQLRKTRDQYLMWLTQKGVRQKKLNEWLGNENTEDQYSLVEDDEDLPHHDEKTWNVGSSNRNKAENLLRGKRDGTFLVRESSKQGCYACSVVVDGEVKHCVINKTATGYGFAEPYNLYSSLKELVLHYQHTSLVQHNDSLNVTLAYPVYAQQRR
# Procedure: PI3K kinases including p110α/p85α, p110δ/p85α and p110γ are purchased from Invitrogen, and p110β/p85α is from Millipore.
# Primary screening data and IC50 values are measured using Transcreener™ KINASE Assay (Bellbrook, Catalog #3003-10K). […] It is a universal, homogenous, high throughput screening (HTS) technology using a far-red, competitive fluorescence polarization immunoassay based on the detection of ADP to monitor the activity of enzymes that catalyze group transfer reactions. Briefly, the Transcreener KINASE Assay is designed as a simple two-part, endpoint assay.
# In the first step, the 25 ul kinase reaction is performed by preparing a reaction mixture containing 5 ul test compound (2% DMSO final concentration), 10 ul kinase, buffer (50 mM HEPES, 100 mM NaCl, 1 mM EGTA, 0.03% CHAPS, 3 mM MgCl2, and freshly supplemented 1 mM DTT), and 10 ul 30 uM PIP2/10 uM ATP. The plate is sealed and incubated for 80 min at room temperature. Next, 25 ul ADP detection mix is added per well. The plate is sealed again and incubated for 60 min at room temperature, and then measure fluorescence polarization by Tecan Infinite F500 Reader.
# Data is analyzed and IC50s are generated using the add-in software for Microsoft Excel, Xlfit™ (version 2.0). IH %=(ADP amount under 2% DMSO-ADP amount under test compound)/ADP amount under 2% DMSO.
# Chain of p110δ/p85α (O00329 whole entry): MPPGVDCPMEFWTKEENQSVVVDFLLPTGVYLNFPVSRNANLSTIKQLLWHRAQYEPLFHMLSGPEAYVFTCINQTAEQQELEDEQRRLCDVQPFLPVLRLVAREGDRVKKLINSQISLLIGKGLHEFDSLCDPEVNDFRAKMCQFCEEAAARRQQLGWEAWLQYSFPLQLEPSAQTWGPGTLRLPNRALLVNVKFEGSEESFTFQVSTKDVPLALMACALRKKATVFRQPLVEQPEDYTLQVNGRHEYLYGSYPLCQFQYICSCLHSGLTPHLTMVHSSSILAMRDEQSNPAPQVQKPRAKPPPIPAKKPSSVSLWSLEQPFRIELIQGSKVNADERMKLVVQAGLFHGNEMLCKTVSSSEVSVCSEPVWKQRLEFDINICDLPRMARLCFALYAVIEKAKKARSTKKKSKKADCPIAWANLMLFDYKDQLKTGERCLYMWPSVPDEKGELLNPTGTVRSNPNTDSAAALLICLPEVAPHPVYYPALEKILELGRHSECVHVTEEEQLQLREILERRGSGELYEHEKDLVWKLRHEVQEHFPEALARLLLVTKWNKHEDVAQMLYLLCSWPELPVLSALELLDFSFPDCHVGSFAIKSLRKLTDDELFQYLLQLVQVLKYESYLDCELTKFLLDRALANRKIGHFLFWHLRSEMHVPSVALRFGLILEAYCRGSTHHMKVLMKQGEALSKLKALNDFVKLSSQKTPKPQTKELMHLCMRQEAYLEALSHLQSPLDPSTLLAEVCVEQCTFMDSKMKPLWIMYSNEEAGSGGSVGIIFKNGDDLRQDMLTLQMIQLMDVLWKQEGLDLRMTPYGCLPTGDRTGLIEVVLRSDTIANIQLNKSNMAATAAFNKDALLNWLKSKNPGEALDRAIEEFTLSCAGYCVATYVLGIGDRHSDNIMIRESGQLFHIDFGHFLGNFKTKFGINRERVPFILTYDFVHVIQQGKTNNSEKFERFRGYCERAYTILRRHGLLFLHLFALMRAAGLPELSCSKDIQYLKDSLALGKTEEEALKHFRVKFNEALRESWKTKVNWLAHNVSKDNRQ
# Chain of p110δ/p85α (P27986 whole entry partner): as the sequence (P27986 whole entry partner) above
Compound,PI3Kδ IH % @ 1 uM [1] [%],IC50 [1] [nM],IC50 [2] [nM],PI3Kβ IH % @ 1 uM [3] [%],IC50 [3] [nM],PI3Kγ IH % @ 1 uM [4] [%],IC50 [4] [nM],IC50 [5] [nM]
Cc1cc(Cl)c2c(=O)n(-c3ccccc3)c([C@@H]3CCN3c3ncnc4[nH]cnc34)nn12 [Compound 496],34.2,,2,18.3,,17.2,,
Cc1nc(N)nc(N2C[C@H](C)[C@H]2c2nn3ccc(Cl)c3c(=O)n2-c2cccc(F)c2)c1C#N [Compound 461],>100,0.4,18,80.5,54,>100,7,
Cc1nc(N)nc(N2CC[C@H]2c2nn3ccc(C(F)(F)F)c3c(=O)n2-c2ccccc2)c1C#N [Compound 487],>100,6,46,64.7,,>100,8,
Cc1nc(N)nc(N2C[C@H](C)C2c2nn3ccc(F)c3c(=O)n2-c2ccccc2)c1C#N (stereo partly shown) [Compound 436],>100,1,37,78.5,24,98.7,2,
"CC(=O)c1cnc(N)nc1N1CC[C@H]1c1nn2ccc(C(F)(F)F)c2c(=O)n1-c1ccccc1 [Compound 486, (S)-2-(1-(5-acetyl-2-aminopyrimidin-4-yl)azetidin-2-yl)-3-phenyl-5-(trifluoromethyl)pyrrolo[2,1-f][1,2,4]triazin-4(3H)-one]",>100,22,51,41.5,,>100,13,
CC(=O)c1c(N)nc(N)nc1N1CCC1c1nn2ccc(Cl)c2c(=O)n1-c1ccccc1 (stereo not shown) [Compound 492],97.73,30,12,50.7,,>100,12,
C[C@H]1CN(c2ncnc3[nH]cc(C#N)c23)C1c1nn2ccc(Cl)c2c(=O)n1-c1ccccc1 (stereo partly shown) [Compound 235],>100,4,71,69.3,211,96.2,12,
CC(=O)c1cnc(N)nc1N1C[C@H](C)[C@H]1c1nn2ccc(Cl)c2c(=O)n1-c1ccccn1 [Compound 473],>100,2,36,67.3,454,97.0,10,921
C[C@H]1CN(c2nc(N)ncc2C#N)C1c1nn2ccc(Cl)c2c(=O)n1-c1ccccc1 (stereo partly shown) [Compound 431],96.2,7,85,51.3,,95.9,8,
Cc1nc(N)nc(N2CCC2c2nn3ccc(Cl)c3c(=O)n2-c2ccccn2)c1C#N (stereo not shown) [Compound 475],94.9,2,94,80.3,83,93.3,13,

# Further compounds by falling IC50 [2], results first:
PI3Kδ IH % @ 1 uM [1] [%],IC50 [1] [nM],IC50 [2] [nM],PI3Kβ IH % @ 1 uM [3] [%],IC50 [3] [nM],PI3Kγ IH % @ 1 uM [4] [%],IC50 [4] [nM],IC50 [5] [nM],Compound
>100,3,96,47.1,,92.4,7,,CC1(C)CN(c2nc(N)ncc2C#N)C1c1nn2ccc(Cl)c2c(=O)n1-c1ccccc1 (stereo not shown) [Compound 471]
>100,1,90,80.5,185,>100,5,,Cc1nc(N)nc(N2C[C@H](C)[C@H]2c2nn3ccc(F)c3c(=O)n2-c2cccc(F)c2)c1C#N [Compound 462]
89.7,1,39,77.1,374,94.3,5,,CC(=O)c1cnc(N)nc1N1C[C@H](C)[C@H]1c1nn2ccc(Cl)c2c(=O)n1-c1cccc(F)c1 [Compound 467]
>100,3,23,63.6,296,>100,8,,CC(=O)c1cnc(N)nc1N1C[C@H](C)[C@H]1c1nn2ccc(C(F)(F)F)c2c(=O)n1-c1ccccc1 [Compound 489]
>100,4,20,79.3,223,>100,13,,CC(=O)c1cnc(N)nc1N1C[C@H](C)[C@H]1c1nn2ccc(Cl)c2c(=O)n1-c1ccccc1 [Compound 301]
>100,1,14,92.0,78,>100,3,558,C[C@H]1CN(c2nc(N)nc(N)c2C#N)[C@@H]1c1nn2ccc(Cl)c2c(=O)n1-c1ccccc1 [Compound 481]
>100,3,11,93.6,81,>100,2,648,C[C@H]1CN(c2nc(N)nc(N)c2C#N)[C@@H]1c1nn2ccc(Cl)c2c(=O)n1-c1ccc(F)cc1 [Compound 480]
99.7,6,8,73.6,250,>100,8,,CC(=O)c1c(N)nc(N)nc1N1C[C@H](C)C1c1nn2ccc(Cl)c2c(=O)n1-c1cccc(F)c1 (stereo partly shown) [Compound 493]
